According to patent US10017509B2, “Macrocylic pyrimidine derivatives” (Janssen Pharmaceutica NV, priority 2014, dated 2018):

What was measured:
[1] = target: Vps34 (PIK3C3 lipid kinase) (Homo sapiens, UniProt Q8NEB9); test: Biochemical Vps34 lipid kinase assay (ADP-Glo); conditions: for remaining activity at 1 µM: 1 h, read-out: VPS34_1microM_% of cntrl; for IC50: serial half-log dilution 10 μM to 0.3 nM, pIC50 = -log IC50 (M)
In short: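 ADP-Glo luminescence assay of PIK3C3 (7.6 nM) with 50 µM substrate and 20 µM ATP (apparent Km) in HEPES pH 7.5, 100 mM NaCl, 3 mM MnCl2, CHAPS, DTT; 60 min, 30 °C. Single dose 1 µM (residual activity vs DMSO) or half-log series 10 µM-0.3 nM giving pIC50.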

[2] = target: T1, EF2K (Homo sapiens, UniProt O00418); test: Biochemical EF2K lysate-based kinase assay (AlphaLISA p-eEF2 Thr56); conditions: pIC50 = -log IC50 (M), read-out: eEF2K_C_alphalisa pIC50 (converted)
T1 construct: host or cells: LN-229 cell lysate
T1 sequence (O00418 1-725): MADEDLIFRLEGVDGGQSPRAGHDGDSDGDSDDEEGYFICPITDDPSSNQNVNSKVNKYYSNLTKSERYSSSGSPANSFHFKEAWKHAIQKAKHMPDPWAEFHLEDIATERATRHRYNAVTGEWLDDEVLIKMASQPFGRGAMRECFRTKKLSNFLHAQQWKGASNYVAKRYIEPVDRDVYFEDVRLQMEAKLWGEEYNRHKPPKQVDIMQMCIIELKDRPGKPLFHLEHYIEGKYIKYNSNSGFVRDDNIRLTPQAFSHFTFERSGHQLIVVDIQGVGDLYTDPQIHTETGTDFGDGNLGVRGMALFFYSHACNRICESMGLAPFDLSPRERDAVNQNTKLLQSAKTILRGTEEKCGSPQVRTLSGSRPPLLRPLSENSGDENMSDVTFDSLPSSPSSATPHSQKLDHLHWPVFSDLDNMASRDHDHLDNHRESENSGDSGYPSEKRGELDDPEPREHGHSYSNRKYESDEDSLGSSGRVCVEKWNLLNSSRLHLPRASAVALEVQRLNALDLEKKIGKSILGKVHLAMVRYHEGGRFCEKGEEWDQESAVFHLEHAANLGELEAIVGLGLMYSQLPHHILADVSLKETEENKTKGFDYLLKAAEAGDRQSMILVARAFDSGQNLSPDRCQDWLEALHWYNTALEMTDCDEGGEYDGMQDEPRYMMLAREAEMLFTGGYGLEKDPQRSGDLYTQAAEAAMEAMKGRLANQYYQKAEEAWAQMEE
In short: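 LN-229 glioblastoma lysate supplied both EF2K and eEF2 substrate; compound incubated 15 min at room temperature in pH 6.6 buffer with 10 mM Mg2+ and 10 mM ATP. EDTA-stopped; phospho-eEF2 Thr56 quantified by AlphaLISA sandwich, final read after overnight. Values as pIC50.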

[3] = target: T1, EF2K; test: EF2K cell-based assay (P-EF2 AlphaLISA, 2-deoxyglucose stimulated MCF10A cells); conditions: 2.5 mM 2-deoxyglucose stimulated, P-EF2 Thr56, pIC50 = -log IC50 (M), read-out: eEF2K_C_PThr56 pIC50 (converted)
In short: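 MCF10A cells, after 24 h culture, treated 1 h with compound then stimulated 4 h with 2.5 mM 2-deoxyglucose to activate AMPK. Lysates in M-PER with protease/phosphatase inhibitors assayed for P-EF2 by AlphaLISA; pIC50 = −log IC50 (M).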

[4] = single dose 1 μM compound, residual activity compared to control (DMSO)

Vps34 (PIK3C3 lipid kinase), sequence (Q8NEB9 whole entry, species assumed): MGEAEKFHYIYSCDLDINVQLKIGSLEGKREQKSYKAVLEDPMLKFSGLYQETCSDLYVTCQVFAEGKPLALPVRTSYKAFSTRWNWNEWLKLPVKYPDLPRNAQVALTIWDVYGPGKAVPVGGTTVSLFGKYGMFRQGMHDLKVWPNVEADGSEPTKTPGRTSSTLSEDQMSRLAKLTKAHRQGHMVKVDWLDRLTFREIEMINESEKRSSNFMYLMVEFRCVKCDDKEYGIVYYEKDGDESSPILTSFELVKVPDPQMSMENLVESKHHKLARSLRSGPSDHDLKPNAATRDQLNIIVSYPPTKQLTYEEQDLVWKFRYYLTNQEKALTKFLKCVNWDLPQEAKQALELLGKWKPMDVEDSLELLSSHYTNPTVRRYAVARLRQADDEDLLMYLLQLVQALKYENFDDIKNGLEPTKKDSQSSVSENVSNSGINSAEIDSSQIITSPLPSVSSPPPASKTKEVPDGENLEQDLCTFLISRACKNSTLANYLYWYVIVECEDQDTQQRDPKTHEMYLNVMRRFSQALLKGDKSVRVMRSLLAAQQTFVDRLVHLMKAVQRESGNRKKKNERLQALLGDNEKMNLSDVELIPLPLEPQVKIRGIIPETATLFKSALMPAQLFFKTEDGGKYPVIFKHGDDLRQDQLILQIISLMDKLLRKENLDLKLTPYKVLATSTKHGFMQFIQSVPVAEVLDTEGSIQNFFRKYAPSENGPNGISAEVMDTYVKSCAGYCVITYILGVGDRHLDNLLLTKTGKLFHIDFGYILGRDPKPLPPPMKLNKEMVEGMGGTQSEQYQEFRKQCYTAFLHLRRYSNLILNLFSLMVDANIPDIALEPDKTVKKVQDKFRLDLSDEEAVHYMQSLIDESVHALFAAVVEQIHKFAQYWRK

| Structure (SMILES) | remaining activity at 1 µM [1, 4] | IC50 [2] | IC50 [3] | IC50 [1] | VPS34_1microM_% of cntrl [1, 4] |
| --- | --- | --- | --- | --- | --- |
| CC1C(=O)N(C)CCCN(C)c2ccc(cn2)-c2ccnc(n2)Nc2cccc(c2)CN2CCN1CC2 (stereo not drawn) [Compound 67] | 32.1% | 1.29e-07 M | 3.89e-06 M |  |  |
| CN1CCN(C)c2ccc(cn2)-c2ccnc(n2)Nc2cccc(c2)CN2CCNC(CC1=O)C2 (stereo not drawn) [Compound 72] | 11.5% | 3.8e-06 M | > 3.02e-05 M | 3.02e-07 M |  |
| CN1CCN(C)c2ccc(cn2)-c2ccnc(n2)Nc2cccc(c2)CN2CCN(C)C(CC1=O)C2 (stereo not drawn) [Compound 73] | 19.6% | 1.82e-06 M | > 3.02e-05 M | 4.07e-07 M |  |
| CN1CCCN(C)c2ccc(cn2)-c2ccnc(n2)Nc2cccc(c2)CN2CCN(C)C(C2)C1=O (stereo not drawn) [Compound 75] | 22.9% | > 3.02e-05 M | > 3.02e-05 M | 1.38e-06 M |  |
| O=C1CC2CCN(CC2)Cc2cccc(c2)Nc2nccc(n2)-c2ccc(nc2)NCCCN1 [Compound 79] | 24.3% | > 3.02e-05 M | > 3.02e-05 M | 6.03e-07 M |  |
| O=C1CN2CCN(CC2)Cc2cccc(c2)Nc2nccc(n2)-c2ccc(nc2)N2CCCC2CN1 (stereo not drawn) [Compound 80] |  | 1.74e-07 M | 5.5e-06 M |  | 63.22 % of cntrl |
| CN1CCCN(C)c2ccc(cn2)-c2ccnc(n2)Nc2cccc(c2)CN2CCC(CC2)CC1=O [Compound 81] | 26.4% | 2.4e-06 M | 1.82e-05 M | 8.91e-07 M |  |
| CN1CCCN(C)c2ccc(cn2)-c2ccnc(n2)Nc2cccc(c2)CN2CCN(CC1=O)C(=O)C2 [Compound 82] | 10.8% | 3.39e-07 M | > 3.02e-05 M | 4.07e-07 M |  |
| CN1CCCN(C)c2ncc(cn2)-c2ccnc(n2)Nc2cccc(c2)CN2CCN(CC2)CC1=O [Compound 84] | 30.6% | 2.88e-07 M | 8.71e-06 M |  |  |
| O=C1CN2CCN(CC2)Cc2cccc(c2)Nc2nccc(n2)-c2ccc(nc2)NC(=O)CCN1 [Compound 85] | 47.6% | 2.69e-06 M | > 3.02e-05 M |  |  |
| CN1CCCN(C)c2ccc(cc2)-c2ccnc(n2)Nc2cccc(c2)CN2CCN(CC1=O)C(C(=O)OCc1ccccc1)C2 (stereo not drawn) [Compound 92] | 38.3% | 8.91e-08 M | > 3.02e-05 M |  |  |
| COCC1CN2CCN1Cc1cccc(c1)Nc1nccc(n1)-c1ccc(nc1)N(C)CCCN(C)C(=O)C2 (stereo not drawn) [Compound 97] | 24.6% | 1.51e-07 M | 2.24e-05 M | 5.37e-07 M |  |
| CN1CCCN(C)c2ccc(cn2)-c2ccnc(n2)Nc2cccc(c2)CN2CCN(CC1=O)CC2COCCN1CCOCC1 (stereo not drawn) [Compound 98] | 33.9% | 1.48e-07 M | 2.75e-05 M |  |  |
| COCCOCC1CN2CCN1Cc1cccc(c1)Nc1nccc(n1)-c1ccc(nc1)N(C)CCCN(C)C(=O)C2 (stereo not drawn) [Compound 101] | 29.4% | 1.7e-07 M | 2.04e-05 M | 7.76e-07 M |  |
| CN1CCCN(C)c2ccc(cn2)-c2ccnc(n2)Nc2cccc(c2)CN2CCN(CC1=O)CC2COCCO (stereo not drawn) [Compound 103] | 28.3% | 1.95e-07 M | 1.86e-05 M | 6.76e-07 M |  |
| CN1CCN(CCOCC2CN3CCN2Cc2cccc(c2)Nc2nccc(n2)-c2ccc(nc2)N(C)CCCN(C)C(=O)C3)CC1 (stereo not drawn) [Compound 106] | 36.3% | 3.02e-07 M | 1.66e-05 M |  |  |
| CN1CCCN(C)c2ccc(cn2)-c2ccnc(n2)Nc2cccc(c2)CN2CCN(CC1=O)CC2COCCN1CCNCC1 (stereo not drawn) [Compound 107] | 32.7% | 3.24e-07 M | > 3.02e-05 M |  |  |
| CN(C)CCOCC1CN2CCN1Cc1cccc(c1)Nc1nccc(n1)-c1ccc(nc1)N(C)CCCN(C)C(=O)C2 (stereo not drawn) [Compound 108] | 25.5% | 2.09e-07 M | 2.45e-05 M | 5.25e-07 M |  |
| CN1CCCN(C)c2ccc(cn2)-c2ccnc(n2)Nc2cccc(c2)CC2CCN(CC2)CC1=O [Compound 109] | 14.7% | 1.35e-06 M | > 3.02e-05 M | 2.88e-07 M |  |
| CN1CCCN(C)c2ccc(cn2)-c2ccnc(n2)Nc2cccc(c2)N2CCN(CC2)CC1=O [Compound 110] | 7.68% | 1.48e-06 M | > 3.02e-05 M | 3.47e-07 M |  |
| CN1CCCN(C)c2ccc(cn2)-c2ccnc(n2)Nc2cccc(c2)CC2(O)CCN(CC2)CC1=O [Compound 114] | 30.8% | 4.47e-06 M | 2.34e-05 M |  |  |
| O=C1CN2CCN(CC2)S(=O)(=O)c2cccc(c2)Nc2nccc(n2)-c2ccc(nc2)NCCCN1 [Compound 116] | 14% | 7.76e-06 M | > 3.02e-05 M | 4.47e-07 M |  |
| COCCN1CCNc2ccc(cn2)-c2ccnc(n2)Nc2cccc(c2)CN2CCN(CC2)CC1=O [Compound 123] | 23.6% | 8.71e-06 M | > 3.02e-05 M | 3.89e-06 M |  |
| CN1CCCNc2ccc(cn2)-c2ccnc(n2)Nc2cccc(c2)CN2CCC(CC2)CC1=O [Compound 124] | 53.2% | > 3.02e-05 M | > 3.02e-05 M |  |  |

Continued by falling IC50 [1], values first:

| remaining activity at 1 µM [1, 4] | IC50 [2] | IC50 [3] | IC50 [1] | VPS34_1microM_% of cntrl [1, 4] | Structure (SMILES) |
| --- | --- | --- | --- | --- | --- |
| 11.7% | 3.47e-07 M | > 3.02e-05 M | 2e-07 M |  | O=C1CN2CCN(CC2)C(=O)c2cccc(c2)Nc2nccc(n2)-c2ccc(nc2)NCCCN1 [Compound 117] |
| 1.43% | 4.47e-06 M | > 3.02e-05 M | 1.7e-07 M |  | O=C1CNCCCNc2ccc(cn2)-c2ccnc(n2)Nc2cccc(c2)N2CCN1CC2 [Compound 111] |
| 15.7% | 7.94e-07 M | 5.01e-06 M | 1.7e-07 M |  | O=C1CN2CCN(CC2)Cc2cccc(c2)Nc2nccc(n2)-c2ccc(nc2)NCCN1 [Compound 119] |
| 7.65% | 2.82e-06 M | 4.47e-06 M | 1.66e-07 M |  | O=C1CNCCNc2ccc(cn2)-c2ccnc(n2)Nc2cccc(c2)CN2CCN1CC2 [Compound 113] |
| 6.01% | 2.14e-07 M | > 3.02e-05 M | 1.51e-07 M |  | O=C1CN2CCC(CC2)Cc2cccc(c2)Nc2nccc(n2)-c2ccc(nc2)NCCCN1 [Compound 115] |
| 8.1% | 7.94e-06 M | > 3.02e-05 M | 1.41e-07 M |  | O=C1CN2CCN(CCc3cccc(c3)Nc3nccc(n3)-c3ccc(nc3)NCCCN1)CC2 [Compound 118] |
| 7.48% | 1.2e-06 M | > 3.02e-05 M | 1.32e-07 M |  | CN1CCCNC(=O)CN2CCN(CC2=O)Cc2cccc(c2)Nc2nccc(n2)-c2ccc1nc2 [Compound 78] |
| 6.27% | 2.09e-06 M | > 3.02e-05 M | 1.29e-07 M |  | O=C1CN2CCN(CC2=O)Cc2cccc(c2)Nc2nccc(n2)-c2ccc(nc2)NCCCN1 [Compound 77] |
| 7.29% | 1.74e-07 M | 1.45e-05 M | 1.2e-07 M |  | O=C1CN2CCN(CC2)Cc2cc(ccc2Cl)Nc2nccc(n2)-c2ccc(nc2)NCCCN1 [Compound 120] |
| 3.25% | 1.78e-06 M | > 3.02e-05 M | 6.92e-08 M |  | CN1CCCN(C)c2ccc(cn2)-c2ccnc(n2)Nc2cccc(c2)CN2CCN(CC2)C(=O)C1 [Compound 83] |
| 6.25% | 3.89e-06 M | 7.41e-06 M | 6.03e-08 M |  | O=C1CNCCCNc2ccc(cn2)-c2ccnc(n2)Nc2cccc(c2)CN2CCN1CC2 [Compound 112] |
| 12% | 7.59e-06 M | > 3.02e-05 M | 1.74e-08 M |  | CN1CCN2Cc3cccc(c3)Nc3nccc(n3)-c3ccc(nc3)NCCCNC(=O)CC1C2 (stereo not drawn) [Compound 71] |
| 7.38% | 6.03e-06 M | > 3.02e-05 M | 1.2e-08 M |  | O=C1CC2CN(CCN2)Cc2cccc(c2)Nc2nccc(n2)-c2ccc(nc2)NCCCN1 (stereo not drawn) [Compound 70] |
